Experimental data as given in patent US20250387388A1, “COMPOUND AS TRK INHIBITOR AND/OR RET INHIBITOR AND USE THEREOF” (Medinno Pharmaceutical Technology (Zhuhai) Co., Ltd., priority 2022, published 2025).

What was measured:
[1] = system: ovalbumin-induced asthma model in mice; assay: Ovalbumin-induced asthma model in mice; type: in vivo, Balb/c mice; conditions: nasal administration BID 5 days: MDI-1228 3 mg/kg, MDI-1288 3 mg/kg, MDI-1233 1, 3, 10 mg/kg; for Bronchoalveolar lavage fluid IL-5 expression level / Inflammatory cell count in bronchoalveolar lavage fluid / Lung tissue inflammatory cell infiltration (HE pathology) / Serum IgE expression level: vs. vehicle (model) group, dexamethasone 1 mg/kg gavage QD
Protocol: After 7 days of acclimatization, animals were randomly grouped based on their body weight. The experiment was divided into 8 groups, with 8 mice in each group, as detailed in the table below.
• Preparation of Immunogen: Weigh an appropriate amount of OVA, to which an appropriate amount of PBS was added, to achieve a final concentration of 0.1 mg/ml. Then, an equal volume of aluminum adjuvant was added, and the resulting mixture was mixed well, and stored at 4° C., which was prepared before use. • Preparation of Sensitizer (5% OVA): Weigh an appropriate amount of OVA, to which an appropriate amount of PBS was added, to achieve a final concentration of 5%. The resulting mixture was mixed well, and store it at 4° C. for later use, which was prepared before use. • Preparation of Vehicle: Add 200 μl of Tween 80 to 100 ml of saline, and mix it well. […] Mix it well, and store it at 4° C. for later use. […] Mix it well, and store it at 4° C. for later use. […] Mix it well, and store it at 4° C. for later use. The solution was prepared once every three days.
• Immunization: On days 0, 7, 14, and 21, 200 μl of PBS was injected intraperitoneally for the first group, and 200 μl of (10 μg) OVA/aluminum adjuvant emulsion was injected intraperitoneally for groups 2-8. • Sensitization: From days 28 to 32, the first group of animals was exposed to nebulized PBS in a nebulization box for 20 minutes, and the groups 2-8 were exposed to nebulized 5% OVA in a nebulization box for 20 minutes. And then, they were removed. The sensitization was conducted at 12:30 PM daily. • Administration: The medicine was administrated twice a day at 9 AM and 5 PM via nasal drops. Dexamethasone (Dex) was administered by gavage once a day at 9 AM.
Serum IgE: Blood was collected from the orbits of animals after carbon dioxide euthanasia, and plasma was separated and stored at −40 degrees for plasma IgE detection.
Bronchoalveolar Lavage Fluid (BALF) Cell Count: An appropriate amount of foetal bovine serum was weighted and dissolved in PBS to a final concentration of 1%. After orbital blood collection, the trachea was exposed, and a 1 ml syringe needle was replaced with a mouse gavage needle. 0.8 ml of the lavage fluid was aspirated from the syringe and the lungs were lavaged three times. The lavage fluids were collected, and centrifuged at 1000 rpm for 10 minutes, and the supernatant was collected and stored at −40 degrees Celsius. Cells were resuspended with 1 ml of PBS and counted. 100 ul of centrifuged smear was taken and stained with Diff quick and the number of eosinophils, basophils, lymphocytes and macrophages were recorded.
Bronchoalveolar Lavage Fluid IL-5: Bronchoalveolar lavage fluid was collected to detect IL-5.
Pathological scoring criteria were: • A) 0 points: No lymphocyte infiltration; • B) 1 point: Trace lymphocyte infiltration; • C) 2 points: Mild lymphocyte infiltration; • D) 3 points: Moderate lymphocyte infiltration; • E) 4 points: Severe lymphocyte infiltration; • After scoring, the results were calculated and analyzed.

acne model in rabbits = assay: Acne model in rabbits (coal tar + Propionibacterium acnes); type: in vivo, New Zealand white rabbits; conditions: for Rabbit ear weight: twice per day, topical, 2 weeks; for Serum DHT level / Serum IL-1α level: vs. model (vehicle) group; for Effect on inflammatory factors and acne (conclusion): rabbit, in vivo
Protocol: Modeling: Rabbits were acclimated for 7 days. On the right inner ear canal exit of the rabbits, a 2 cm×2 cm area was treated with 2% coal tar solution once a day, 0.5-1 mL each time, for 26 consecutive days. […] On the 8th day, Propionibacterium acnes was injected intradermally at 3-4 sites on the rabbit ears, 50 μl per rabbit, injected every other day for a total of 5 times. Treatment was started randomly on the 9th day after the last injection.
Rabbits were treated according to their groups. The blank group received no treatment. […] The model group received an equal amount of vehicle treatment, with the same application method and duration as the test drug groups.
Twenty-four hours after the last administration, a 2.8 cm punch was used to prepare ear samples at the application site, and their weight was measured. The ears from the modeling site were fixed with 4% paraformaldehyde, and consecutive sections (3 slices) were taken from the same location for HE staining and histopathological analysis. At the same time, the area of 3 hair follicles and the diameter of 3 sebaceous glands were measured to calculate the average values. Blood was drawn from the heart and centrifuged to obtain serum, and the levels of interleukin-1α (IL-1α), interleukin-6 (IL-6), and dihydrotestosterone (DHT) in serum were determined according to the ELISA kit instructions.
Tissue samples from animal ears were excised, fixed in 4% paraformaldehyde, dehydrated, embedded in paraffin, and sectioned and HE stained for observation of histopathological morphology changes. The tissue samples were fixed in 4% paraformaldehyde at normal temperature and the taken ears tissue was rinsed with running water for several hours, dehydrated through a series of ethanol solutions (70%, 80%, 90%), and then treated with a mixture of pure alcohol and xylene for 15 minutes, followed by xylene I for 15 minutes and xylene II for 15 minutes (until transparent). The tissue was then placed in a mixture of xylene and paraffin at a volume ratio of 1:1 for 15 minutes, followed by immersion with paraffin I and paraffin II each for 50-60 minutes. The tissue was embedded in paraffin and sectioned, and the sections were baked, dewaxed and hydrated in distilled water. The resulting sections were then stained in hematoxylin solution for 3 minutes, differentiated in a hydrochloric acid alcohol solution for 15 seconds, slightly washed, blued in a return blue solution for 15 seconds, rinsed with running water, stained with eosin for 3 minutes, rinsed with running water, dehydrated, cleared, and mounted for microscopic examination.
A double-antibody one-step sandwich Enzyme-linked Immunosorbent Assay (ELISA) ket was used. A capture antibody for the mouse target indicators was pre-coated onto microplate wells, to which samples, standards, and HRP-labeled detection antibodies were added sequentially, followed by incubation and thorough washing. TMB substrate was added for color development, which turned into blue in the presence of peroxidase and then into yellow after acidification. The depth of color was positively correlated with the concentration of the target in the samples. The absorbance (OD450 value) was measured at a wavelength of 450 nm using the microplate reader, and the sample concentration was calculated.

TRKA = TRKA (Homo sapiens (Human), UniProt P04629); assay: Inhibitory activity on TRKA (ADP-Glo Kinase Assay)
TRKB = TRKB (Homo sapiens (Human), UniProt Q16620); assay: Inhibitory activity on TRKB (ADP-Glo Kinase Assay)
Chain of TRKB (Q16620 32-822): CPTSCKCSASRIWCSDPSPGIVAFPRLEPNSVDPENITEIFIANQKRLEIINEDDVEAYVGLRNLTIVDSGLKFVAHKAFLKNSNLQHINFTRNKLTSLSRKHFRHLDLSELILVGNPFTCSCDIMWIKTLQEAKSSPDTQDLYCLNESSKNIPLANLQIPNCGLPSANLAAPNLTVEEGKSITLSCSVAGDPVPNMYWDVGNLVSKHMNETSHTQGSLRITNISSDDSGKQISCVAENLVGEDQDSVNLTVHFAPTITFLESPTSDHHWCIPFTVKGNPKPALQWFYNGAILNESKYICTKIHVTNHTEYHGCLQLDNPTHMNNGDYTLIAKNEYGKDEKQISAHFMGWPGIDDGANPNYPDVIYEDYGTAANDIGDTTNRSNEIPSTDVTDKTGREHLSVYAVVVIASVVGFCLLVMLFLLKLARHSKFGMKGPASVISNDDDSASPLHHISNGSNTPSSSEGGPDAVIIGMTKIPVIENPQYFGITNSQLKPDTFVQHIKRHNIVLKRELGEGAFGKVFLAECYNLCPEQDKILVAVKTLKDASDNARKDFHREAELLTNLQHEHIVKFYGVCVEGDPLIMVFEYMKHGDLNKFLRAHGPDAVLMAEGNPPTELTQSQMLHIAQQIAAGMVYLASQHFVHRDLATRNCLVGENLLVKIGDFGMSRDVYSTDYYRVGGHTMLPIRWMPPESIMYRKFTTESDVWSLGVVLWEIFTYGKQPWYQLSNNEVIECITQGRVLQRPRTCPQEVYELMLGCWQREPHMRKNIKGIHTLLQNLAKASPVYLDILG

Chain of TRKA (P04629 33-796 limits assumed): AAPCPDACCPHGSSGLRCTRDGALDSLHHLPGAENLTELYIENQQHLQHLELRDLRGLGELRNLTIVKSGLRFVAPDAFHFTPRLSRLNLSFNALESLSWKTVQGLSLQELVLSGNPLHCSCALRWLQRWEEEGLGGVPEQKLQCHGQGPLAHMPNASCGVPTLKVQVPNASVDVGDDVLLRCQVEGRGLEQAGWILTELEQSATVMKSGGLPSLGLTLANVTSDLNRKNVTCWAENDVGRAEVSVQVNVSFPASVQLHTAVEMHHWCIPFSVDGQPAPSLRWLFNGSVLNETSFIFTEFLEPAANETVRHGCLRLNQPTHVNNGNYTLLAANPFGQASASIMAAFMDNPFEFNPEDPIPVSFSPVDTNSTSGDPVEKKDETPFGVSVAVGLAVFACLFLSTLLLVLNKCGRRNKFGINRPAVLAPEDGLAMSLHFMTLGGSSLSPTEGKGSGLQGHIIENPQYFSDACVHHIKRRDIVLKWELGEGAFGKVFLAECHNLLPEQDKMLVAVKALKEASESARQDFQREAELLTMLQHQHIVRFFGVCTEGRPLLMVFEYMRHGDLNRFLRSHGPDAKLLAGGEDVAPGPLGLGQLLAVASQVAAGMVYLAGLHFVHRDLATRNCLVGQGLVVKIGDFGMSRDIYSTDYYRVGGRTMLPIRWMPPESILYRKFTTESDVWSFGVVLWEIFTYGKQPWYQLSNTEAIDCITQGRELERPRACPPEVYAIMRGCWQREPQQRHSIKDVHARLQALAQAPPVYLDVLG

SMILES | Therapeutic effect on the asthma animal model (lung tissue pathological scoring) [1] | Bronchoalveolar lavage fluid IL-5 expression level [1] | Inflammatory cell count in bronchoalveolar lavage fluid [1] | Lung tissue inflammatory cell infiltration (HE pathology) [1] | Serum IgE expression level [1] | Serum IL-1α, IL-6 and DHT levels (acne model in rabbits; 1 mg/kg low-dose) | Hair follicle area (acne model in rabbits; 3 mg/kg) | Rabbit ear weight (acne model in rabbits; 3 mg/kg each time) | Ear tissue HE staining (acne model in rabbits; 3 mg/kg medium-dose) | Serum DHT level (acne model in rabbits; 3 mg/kg) | Serum IL-1α level (acne model in rabbits; 3 mg/kg) | Hair follicle area (acne model in rabbits; 9 mg/kg) | Rabbit ear weight (acne model in rabbits; 9 mg/kg each time) | Serum DHT level (acne model in rabbits; 9 mg/kg) | Serum IL-1α level (acne model in rabbits; 9 mg/kg) | Effect on inflammatory factors and acne (conclusion) (acne model in rabbits) | IC50 (TRKA) | IC50 (TRKB)
CCc1cc(O)c(F)cc1-c1ccc2c(-c3nc4c([nH]3)CN(C(=O)N3CC[C@H](O)C3)C4)n[nH]c2c1 [MDI-1228, (S)-(2-(6-(2-ethyl-5-fluoro-4-hydroxyphenyl)-1H-indazol-3-yl)-4,6-dihydropyrrolo[3,4-d]imidazol-5-(1H)-yl)(3-hydroxylpyrrolidin-1-yl)ketone] | certain therapeutic effect | significantly reduced the expression of IL-5 | significantly reduced the Inflammatory Cell Count | significantly reduced the lung tissue inflammatory cell infiltration | significantly reduced the expression of IgE | a trend of reduction in all three indicators | significantly reduced the enlargement of hair follicles | reduced ear weight | the best treatment effect | significantly reduced | significantly reduced | significantly reduced the enlargement of hair follicles | reduced ear weight | significantly reduced | significantly reduced | reducing the expression of inflammatory factors and improving acne | 1.82 nM | 1.77 nM
CCc1cc(O)c(F)cc1-c1ccc2c(-c3nc4c([nH]3)CN(C(=O)NCC(O)CCl)C4)n[nH]c2c1 (centres unmarked) [MDI-1288] | certain therapeutic effect | significantly reduced the expression of IL-5 | significantly reduced the Inflammatory Cell Count | significantly reduced the lung tissue inflammatory cell infiltration | significantly reduced the expression of IgE |  |  | reduced ear weight |  | significantly reduced | significantly reduced |  |  |  |  | reducing the expression of inflammatory factors and improving acne | 0.89 nM | 1.04 nM
